Experimental data as given in ChEMBL document CHEMBL5724914, “Linking interpersonal differences in gut microbiota composition and drug biotransformation activity” (2024).

Key:
[1] = The drug is tested on Z-030 corresponding to mouse gut metagenome with ENA study accession number: PRJEB37062 and ENA sample accession number: ERS12561829 for biotransformation under anaerobic condition. The drug concentrations were measured over 9 timepoints collected between 0 and 24 hours of incubation by liquid-chromatography-coupled mass spectrometry (LC–MS); details: 2 µM
[2] = The drug is tested on Z-028 corresponding to mouse gut metagenome with ENA study accession number: PRJEB37062 and ENA sample accession number: ERS12561827 for biotransformation under anaerobic condition. The drug concentrations were measured over 9 timepoints collected between 0 and 24 hours of incubation by liquid-chromatography-coupled mass spectrometry (LC–MS); details: 2 µM
[3] = The drug is tested on Z-026 corresponding to metagenome with ENA study accession number: PRJEB37062 and ENA sample accession number: ERS12561825 for biotransformation under anaerobic condition. The drug concentrations were measured over 9 timepoints collected between 0 and 24 hours of incubation by liquid-chromatography-coupled mass spectrometry (LC–MS); details: 2 µM
[4] = The drug is tested on Z-017 corresponding to mouse gut metagenome with ENA study accession number: PRJEB37062 and ENA sample accession number: ERS12561816 for biotransformation under anaerobic condition. The drug concentrations were measured over 9 timepoints collected between 0 and 24 hours of incubation by liquid-chromatography-coupled mass spectrometry (LC–MS); details: 2 µM
[5] = The drug is tested on Z-009 corresponding to pig gut metagenome with ENA study accession number: PRJEB37062 and ENA sample accession number: ERS12561809 for biotransformation under anaerobic condition. The drug concentrations were measured over 9 timepoints collected between 0 and 24 hours of incubation by liquid-chromatography-coupled mass spectrometry (LC–MS); details: 2 µM
[6] = The drug is tested on Z-007 corresponding to rat gut metagenome with ENA study accession number: PRJEB37062 and ENA sample accession number: ERS12561807 for biotransformation under anaerobic condition. The drug concentrations were measured over 9 timepoints collected between 0 and 24 hours of incubation by liquid-chromatography-coupled mass spectrometry (LC–MS); details: 2 µM
[7] = The drug is tested on Z-005 corresponding to metagenome with ENA study accession number: PRJEB37062 and ENA sample accession number: ERS12561805 for biotransformation under anaerobic condition. The drug concentrations were measured over 9 timepoints collected between 0 and 24 hours of incubation by liquid-chromatography-coupled mass spectrometry (LC–MS); details: 2 µM
[8] = The drug is tested on Z-004 corresponding to metagenome with ENA study accession number: PRJEB37062 and ENA sample accession number: ERS12561804 for biotransformation under anaerobic condition. The drug concentrations were measured over 9 timepoints collected between 0 and 24 hours of incubation by liquid-chromatography-coupled mass spectrometry (LC–MS); details: 2 µM
[9] = The drug is tested on WLS-240 corresponding to human gut metagenome with ENA study accession number: PRJEB37062 and ENA sample accession number: ERS12561773 for biotransformation under anaerobic condition. The drug concentrations were measured over 9 timepoints collected between 0 and 24 hours of incubation by liquid-chromatography-coupled mass spectrometry (LC–MS); details: 2 µM
[10] = The drug is tested on WLS-039 corresponding to human gut metagenome with ENA study accession number: PRJEB37062 and ENA sample accession number: ERS12561746 for biotransformation under anaerobic condition. The drug concentrations were measured over 9 timepoints collected between 0 and 24 hours of incubation by liquid-chromatography-coupled mass spectrometry (LC–MS); details: 2 µM
[11] = The drug is tested on WLS-006 corresponding to human gut metagenome with ENA study accession number: PRJEB37062 and ENA sample accession number: ERS12561741 for biotransformation under anaerobic condition. The drug concentrations were measured over 9 timepoints collected between 0 and 24 hours of incubation by liquid-chromatography-coupled mass spectrometry (LC–MS); details: 2 µM
[12] = human gut metagenome, 24 h, 2 µM
[13] = human gut metagenome, 24 h, 2 µM; remark: listed apart in the source
[14] = human gut metagenome, 24 h, 2 µM; remark: listed apart in the source
[15] = human gut metagenome, 24 h, 2 µM; remark: listed apart in the source
[16] = human gut metagenome, 24 h, 2 µM; remark: listed apart in the source
[17] = human gut metagenome, 24 h, 2 µM; remark: listed apart in the source
[18] = human gut metagenome, 24 h, 2 µM; remark: listed apart in the source
[19] = human gut metagenome, 24 h, 2 µM; remark: listed apart in the source
[20] = human gut metagenome, 24 h, 2 µM; remark: listed apart in the source
Further: call rule not given here.

| Structure (SMILES) | Bacterial Biotransformation [1] | Bacterial Biotransformation [2] | Bacterial Biotransformation [3] | Bacterial Biotransformation [4] | Bacterial Biotransformation [5] | Bacterial Biotransformation [6] | Bacterial Biotransformation [7] | Bacterial Biotransformation [8] | Bacterial Biotransformation [9] | Bacterial Biotransformation [10] | Bacterial Biotransformation [11] | Bacterial Biotransformation [12] | Bacterial Biotransformation [13] | Bacterial Biotransformation [14] | Bacterial Biotransformation [15] | Bacterial Biotransformation [16] | Bacterial Biotransformation [17] | Bacterial Biotransformation [18] | Bacterial Biotransformation [19] | Bacterial Biotransformation [20] |
| --- | --- | --- | --- | --- | --- | --- | --- | --- | --- | --- | --- | --- | --- | --- | --- | --- | --- | --- | --- | --- |
| Br.COc1ccc2c(c1)[C@]13CCCC[C@@H]1[C@H](C2)N(C)CC3.O [DEXTROMETHORPHAN HYDROBROMIDE] | Compound NOT metabolized | Compound NOT metabolized | Compound NOT metabolized | Compound NOT metabolized | Compound metabolized | Compound NOT metabolized | Compound NOT metabolized | Compound metabolized | Compound metabolized | Compound NOT metabolized | Compound metabolized | Compound NOT metabolized | Compound NOT metabolized | Compound NOT metabolized | Compound NOT metabolized | Compound metabolized | Compound NOT metabolized | Compound NOT metabolized | Compound metabolized | Compound metabolized |
| CC#C[C@]1(O)CC[C@H]2[C@@H]3CCC4=CC(=O)CCC4=C3[C@@H](c3ccc(N(C)C)cc3)C[C@@]21C [MIFEPRISTONE] | Compound NOT metabolized | Compound NOT metabolized | Compound NOT metabolized | Compound NOT metabolized | Compound metabolized | Compound NOT metabolized | Compound metabolized | Compound NOT metabolized | Compound metabolized | Compound NOT metabolized | Compound metabolized | Compound NOT metabolized | Compound metabolized | Compound metabolized | Compound NOT metabolized | Compound NOT metabolized | Compound NOT metabolized | Compound NOT metabolized | Compound metabolized | Compound metabolized |
| Cc1ccccc1C(OCCN(C)C)c1ccccc1.O=C(O)CC(O)(CC(=O)O)C(=O)O (stereo not given) [ORPHENADRINE CITRATE] | Compound NOT metabolized | Compound NOT metabolized | Compound NOT metabolized | Compound NOT metabolized | Compound metabolized | Compound NOT metabolized | Compound NOT metabolized | Compound metabolized | Compound NOT metabolized | Compound metabolized | Compound metabolized | Compound metabolized | Compound metabolized | Compound NOT metabolized | Compound NOT metabolized | Compound NOT metabolized | Compound NOT metabolized | Compound NOT metabolized | Compound metabolized | Compound metabolized |
| CC(C)(C)N.CCC[C@H](N[C@@H](C)C(=O)N1[C@H](C(=O)O)C[C@@H]2CCCC[C@@H]21)C(=O)OCC [PERINDOPRIL ERBUMINE] | Compound NOT metabolized | Compound NOT metabolized | Compound NOT metabolized | Compound NOT metabolized | Compound metabolized | Compound NOT metabolized | Compound metabolized | Compound metabolized | Compound metabolized | Compound NOT metabolized | Compound metabolized | Compound metabolized | Compound metabolized | Compound metabolized | Compound NOT metabolized | Compound metabolized | Compound metabolized | Compound metabolized | Compound metabolized | Compound metabolized |
| COC(=O)C(c1ccccc1)C1CCCCN1 (stereo not given) [METHYLPHENIDATE] | Compound NOT metabolized | Compound NOT metabolized | Compound NOT metabolized | Compound NOT metabolized | Compound metabolized | Compound NOT metabolized | Compound NOT metabolized | Compound metabolized | Compound metabolized | Compound NOT metabolized | Compound NOT metabolized | Compound NOT metabolized | Compound metabolized | Compound NOT metabolized | Compound NOT metabolized | Compound metabolized | Compound NOT metabolized | Compound NOT metabolized | Compound metabolized | Compound NOT metabolized |
